Test results as given in patent US7442398B2, “Phytase produced from Citrobacter braakii” (Republic of National Fisheries Research and Development …, priority 2003, dated 2008).

Tests used:
[1] = tested on: YH-15 phytase; assay: Enzyme activity of phytase according to metal ions and inhibitors; format: biochemical, Citrobacter braakii YH-15; conditions: for inhibition of enzyme activity by metal ions: concentration of 10 mM; for enzyme activity after being left with denaturant: 37° C. for 2 hours, 8 M urea or 0.0024% SDS
Description: (§1) The present inventors investigated the effect of metal ions and inhibitors on the enzyme activity of phytase of the present invention.

[2] = tested on: YH-15 phytase; assay: Substrate specificity of phytase; format: biochemical, Citrobacter braakii YH-15; conditions: for Relative activity (%): substrate, phytate = 100
Description: (§2) Substrate specificity of phytase to various phosphate ester compounds was investigated.

[3] = target: T1, Citrobacter braakii YH-15 phytase, wild type, SEQ. ID. No 7 (N-terminal SEQ. ID. No 2) (Citrobacter braakii, UniProt Q2VY22); assay: Enzyme activity of YH-15 phytase according to metal ions and inhibitors; format: biochemical; conditions: for effect of inhibitor on enzyme activity: concentration not given, reagents involved in disulfate bond
T1 construct: signal peptide removed
Procedure: (§3) The present inventors measured the activity of phytase produced by the 5 strains above (Table 1). Inorganic phosphorus quantitative method of Fiske, et al. was used for measuring the activity of phytase in culture solution and in cell precipitate. Particularly, 400 μl of substrate solution (2 mM sodium phytate in 0.1 M sodium acetate buffer, pH 5.0) was added to 100 μl of enzyme solution diluted by required dilution ratio, which was reacted at 37° C. for 30 minutes. Then, 500 μl of 5% TCA solution was added thereto, which was just left at 0° C. for 10 minutes to stop the reaction. As for a control (blank), TCA (trichloroacetic acid) solution was added to enzyme solution to inactivate the enzyme and then substrate solution was added thereto, which was left for a while. 4 ml of reagent A (1:1:1:2 ratio of 6 N H2SO4/2.5% ammonium molybdate/10% ascorbic acid/H2O) was added, followed by reaction at 37° C. for 30 minutes. Then, activities in enzyme solution and in a control were measured at 820 nm. 1 unit of the enzyme was determined to be the enzyme amount releasing 1 μmole of phosphate for 1 minute.
as §1

[4] = target: T1, Citrobacter braakii YH-15 phytase, wild type, SEQ. ID. No 7 (N-terminal SEQ. ID. No 2); assay: Substrate kinetics of purified YH-15 phytase (phosphate release from phytate); format: biochemical; conditions: substrate phytate (sodium phytate)
Procedure: as §3
(§4) The enzyme activity of phytase included in each sample prepared from each purification stage of the above Example <3-2> was investigated (Table 3). Protein content was quantified by BCA protein quantification kit provided by Sigma, co. At that time, BSA (bovine serum albumin) was used as a standard protein. Specific activity of the purified phytase to phytate was 3,457 units/mg, recovery rate was 28%, and the final phytase was purified by 12,950 fold (FIG. 2).
as §2

[5] = tested on: O=P(O)(O)O[C@H]1[C@H](OP(=O)(O)O)[C@@H](OP(=O)(O)O)[C@H](OP(=O)(O)O)[C@@H](OP(=O)(O)O)[C@H]1OP(=O)(O)O; assay: as above; format: biochemical, Citrobacter braakii YH-15; conditions: other: substrate phytate (sodium phytate); pH 5.0; 37.0 °C
Procedure: as §3, §4, §2

[6] = tested on: proteases; assay: Effect of proteases on the enzyme activity of phytase; format: biochemical
Procedure: The present inventors investigated the effect of proteases on the enzyme activity of phytase. Particularly, phytase was left at 37° C. for 2 hours with pepsin and trypsin, resulting in no changes in the enzyme activity. But, as papain, elastase and pancreatin were added, 70˜85% of the enzyme activity remained.

[7] = Specific activity and kinetics of purified phytase to phytate; format: biochemical, Citrobacter braakii YH-15
Procedure: as §3
The enzyme activity of phytase included in each sample prepared from each purification stage of the above Example <3-2> was investigated (Table 3). Protein content was quantified by BCA protein quantification kit provided by Sigma, co. […]

[8] = Enzyme activity of phytase according to temperature and pH; format: biochemical, Citrobacter braakii YH-15
Procedure: The present invention investigated an enzyme activity of phytase, according to temperature and pH, purified through chromatography using Mono S column.
When the enzyme was left at 55° C. for 10 minutes, 75% of the activity was still remained.
50% of the enzyme activity was still maintained at pH 2.5. […] But, as the protein was left under pH 3.0 for 4 hours, the enzyme activity was almost lost. From temperature and pH test with the protein, phytase of the present invention was believed to be very suitable for being used as a feed additive for monogastric animals.

## [Cl][Mn][Cl] [MnCl2]
[1]; metal ion or inhibitor 6 mM
  Relative activity (%): 92%

## [Cl][Fe]([Cl])[Cl] [FeCl3]
[1]
  inhibition of enzyme activity by metal ions: strongly inhibited
[1]; metal ion or inhibitor 6 mM
  Relative activity (%): 19%

## [Cl][Cd][Cl] [CdCl2]
[1]; metal ion or inhibitor 6 mM
  Relative activity (%): 101%

## O=[N+]([O-])c1ccc(OP(=O)(O)O)cc1 [p-nitrophenyl phosphate]
[2]
  Relative activity (%): 11.27%

## OC(CS)C(O)CS (centres unmarked) [dithothreitol]
[3]
  effect of inhibitor on enzyme activity: hardly affected

## Nc1ncnc2c1ncn2[C@@H]1O[C@H](COP(=O)(O)OP(=O)(O)O)[C@@H](O)[C@H]1O [ADP]
[2]
  Relative activity (%): 1.04%

## O=S(=O)([O-])[O-].[Ni+2] [NiSO4]
[1]; metal ion or inhibitor 6 mM
  Relative activity (%): 88%

## O=P(O)(O)O[C@H]1O[C@H](CO)[C@@H](O)[C@H](O)[C@H]1O [Glucose-1-phosphate]
[2]
  Relative activity (%): 0.42%

## OCCS [2-mercaptoethanol]
[3]
  effect of inhibitor on enzyme activity: hardly affected

## O=C[C@@H](O)[C@@H](O)[C@H](O)[C@H](O)COP(=O)(O)O [Mannose-6-phosphate]
[2]
  Relative activity (%): 0.01%

## O=C[C@H](O)[C@@H](O)[C@H](O)[C@H](O)COP(=O)(O)O [Glucose-6-phosphate]
[2]
  Relative activity (%): 0.33%

## [Cl-].[Cl-].[Mg+2] [MgCl2]
[1]; metal ion or inhibitor 6 mM
  Relative activity (%): 71%

## O=P(O)(O)OCC(O)CO (centres unmarked) [Glycerophosphate]
[2]
  Relative activity (%): 0.57%

## O=C(CO)[C@@H](O)[C@H](O)[C@H](O)COP(=O)(O)O [Fructose-6-phosphate]
[2]
  Relative activity (%): 0.75%

## [Cl-].[Na+] [NaCl]
[1]; concentration of 1 M
  inhibition of enzyme activity: 50%
[1]; metal ion or inhibitor 6 mM
  Relative activity (%): 102%
[1]; metal ion or inhibitor 1000 mM
  Relative activity (%): 54%

## O=S(=O)([O-])[O-].[Zn+2] [ZnSO4]
[1]
  inhibition of enzyme activity by metal ions: strongly inhibited
[1]; metal ion or inhibitor 8 mM
  Relative activity (%): 33%

## O=S(=O)([O-])[O-].[Cu+2] [CuSO4]
[1]
  inhibition of enzyme activity by metal ions: strongly inhibited
[1]; metal ion or inhibitor 6 mM
  Relative activity (%): 38%

## O=C(O)CN(CCN(CC(=O)O)CC(=O)O)CC(=O)O [EDTA]
[3]; read-out: Relative activity (%)
  activity at 6000 µM: 98%

## NC(N)=O [urea]
[1]
  enzyme activity after being left with denaturant: almost lost
[3]; 8 M, 37° C., 2 hours
  enzyme activity after incubation with inhibitor: almost lost

## Nc1ncnc2c1ncn2[C@@H]1O[C@H](COP(=O)(O)OP(=O)(O)OP(=O)(O)O)[C@@H](O)[C@H]1O [ATP]
[2]
  Relative activity (%): 1.86%

## O=P(O)(O)O[C@H]1[C@H](OP(=O)(O)O)[C@@H](OP(=O)(O)O)[C@H](OP(=O)(O)O)[C@@H](OP(=O)(O)O)[C@H]1OP(=O)(O)O [phytate, myo-inositol 1,2,3,4,5,6 hexakis dihydrogen phosphate]
[4]
  Vmax: 6,027 U/mg

## [Ca+2].[Cl-].[Cl-] [CaCl2]
[1]; metal ion or inhibitor 6 mM
  Relative activity (%): 87%

## O=P([O-])([O-])OP(=O)([O-])[O-].[Na+].[Na+].[Na+].[Na+] [Tetrasodium pyrophosphate]
[2]
  Relative activity (%): 5.95%

## CCCCCCCCCCCCOS(=O)(=O)[O-].[Na+] [SDS]
[1]
  enzyme activity after being left with denaturant: almost lost

## O=P(O)(O)O[C@H]1[C@H](OP(=O)(O)O)[C@@H](OP(=O)(O)O)[C@H](OP(=O)(O)O)[C@@H](OP(=O)(O)O)[C@H]1OP(=O)(O)O [Phytate, myo-inositol 1,2,3,4,5,6 hexakis dihydrogen phosphate]
[2]
  ability of phytase to decompose the substrate: strong ability to decompose
  Relative activity (%): 100%

## [Cl-].[K+] [KCl]
[1]; metal ion or inhibitor 6 mM
  Relative activity (%): 95%

## Citrobacter braakii YH-15 phytase, wild type, SEQ. ID. No 7 (N-terminal SEQ. ID. No 2) (Citrobacter braakii)
[5]
  Km: 460 µM
  Vmax: 6,027 U/mg

B1: YH-15 phytase: novel phytase enzyme of about 47 kDa produced by Citrobacter braakii YH-15, SEQ. ID. No 7 (protein)
chain: MSTFIIRLLIFSLLCGSFSIHAEEQNGMKLERVVIVSRHGVRAPTKFTPIMKDVTPDQWPQWDVPLGWLTPRGGELVSELGQYQRLWFTSKGLLNNQTCPSPGQVAVIADTDQRTRKTGEAFLAGLAPKCQIQVHYQKDEEKNDPLFNPVKMGKCSFNTLKVKNAILERAGGNIELYTQRYQSSFRTLENVLNFSQSETCKTTEKSTKCTLPEALPSEFKVTPDNVSLPGAWSLSSTLTEIFLLQEAQGMPQVAWGRITGEKEWRDLLSLHNAQFDLLQRTPEVARSRATPLLDMIDTALLTNGTTENRYGIKLPVSLLFIAGHDTNLANLSGALDLKWSLPGQPDNTPPGGELVFEKWKRTSDNTDWVQVSFVYQTLRDMRDIQPLSLEKPAGKVDLKLIACEEKNSQGMCSLKSFSRLIKEIRVPECAVTE
modifications: Citrobacter braakii YH-15; PEPTIDE (1)..(433) phytase
[6]; 37° C. for 2 hours with pepsin
  enzyme activity after pepsin: no changes
[6]; 37° C. for 2 hours with trypsin
  enzyme activity after trypsin: no changes
[6]; elastase added
  enzyme activity remained after elastase: 70˜85%
[6]; pancreatin added
  enzyme activity remained after pancreatin: 70˜85%
[6]; papain added
  enzyme activity remained after papain: 70˜85%
[7]; final purified phytase
  Specific activity of the purified phytase to phytate: 3,457 units/mg
[7]; purification stage Mono SHR 5/5 (final)
  Specific activity: 3,457 U/mg
[8]
  pH of highest activity: 4.0
  temperature of highest activity: 50 °C
[8]; 37° C., pH 3.0-4.5, 7 days
  activity on storage at pH 3.0-4.5: very stably maintained
[8]; 37° C., pH 7.0, 7 days
  activity remained at pH 7.0: 50%
[8]; 50° C. for 1 hour
  activity after holding at 50° C.: stably maintained
[8]; left at 55° C. for 10 minutes
  activity remained after heat: 75%
[8]; pH 2.5
  enzyme activity maintained at pH 2.5: 50%
[8]; under pH 3.0 for 4 hours
  activity after being left under pH 3.0: almost lost
